Measured values taken from patent US20090197967A1, “COMPOSITIONS AND METHODS FOR TREATMENT OF OPHTHALMIC DISEASES AND DISORDERS” (priority 2006, published 2009).

Target: T1, visual cycle trans-cis isomerohydrolase (isomerase) (Bos taurus, UniProt Q28175)
T1 construct: Bovine Retinal Pigment Epithelium (RPE) microsome membranes were the source of visual cycle trans-cis isomerohydrolase (isomerase); from tissue; host or cells: bovine retinal pigment epithelium (RPE) microsome membranes; CRALBP made in E. coli
T1 sequence (Q28175 2-533 limits assumed): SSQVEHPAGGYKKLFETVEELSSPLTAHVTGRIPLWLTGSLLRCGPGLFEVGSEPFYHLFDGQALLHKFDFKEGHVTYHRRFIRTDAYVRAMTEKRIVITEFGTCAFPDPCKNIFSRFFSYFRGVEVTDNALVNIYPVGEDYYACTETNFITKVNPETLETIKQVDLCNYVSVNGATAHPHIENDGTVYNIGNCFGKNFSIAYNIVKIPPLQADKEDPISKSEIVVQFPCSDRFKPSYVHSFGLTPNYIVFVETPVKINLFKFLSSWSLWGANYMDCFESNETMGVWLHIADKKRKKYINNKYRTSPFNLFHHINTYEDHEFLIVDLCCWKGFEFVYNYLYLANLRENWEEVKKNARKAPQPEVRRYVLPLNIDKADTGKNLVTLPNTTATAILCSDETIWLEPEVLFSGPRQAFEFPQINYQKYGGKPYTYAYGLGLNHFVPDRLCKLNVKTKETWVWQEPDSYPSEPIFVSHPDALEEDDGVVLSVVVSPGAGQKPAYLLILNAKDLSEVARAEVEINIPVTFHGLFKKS
Experiment: Isomerase reaction: inhibition of isomerase by retinylamine derivative compounds (bovine RPE microsomes, HPLC read-out)
Type: biochemical
Conditions: 5 min preincubation at 37° C., 10 μM all-trans-retinol, 6 μM apo-CRALBP, 30 minutes
Procedure: The capability of several retinylamine compounds to inhibit the activity of visual cycle trans-cis isomerohydrolase (isomerase) was determined.
Isomerase and LRAT reaction—The isomerase reaction was performed essentially as described previously (Stecher et al., J Biol Chem 274:8577-85 (1999); see also Golczak et al., supra). Bovine Retinal Pigment Epithelium (RPE) microsome membranes were the source of visual cycle trans-cis isomerohydrolase (isomerase).
RPE microsome membrane extracts may be purchased or prepared according to methods practiced in the art and stored at −80° C. Crude RPE microsome extracts were thawed in a 37° C. water bath, and then immediately placed on ice. 50 ml crude RPE microsomes were placed into a 50 ml Teflon-glass homogenizer (Fisher Scientific, catalog no. 0841416M) on ice, powered by a hand-held DeWalt drill, and homogenized ten times up and down on ice under maximum speed. This process was repeated until the crude RPE microsome solution was homogenized. The homogenate was then subjected to centrifugation (50.2 Ti rotor (Beckman, Fullerton, Calif.), 13,000 RPM; 15360 Rcf) for 15 minutes at 4° C. The supernatant was collected and subjected to centrifugation a5 42,000 RPM (160,000 Rcf, 50.2 Ti rotor) for 1 hour at 4° C. The supernatant was removed, and the pellets were suspended in 12 ml (final volume) cold 10 mM MOPS buffer, pH 7.0. The resuspended RPE membranes in 5 ml aliquots were homogenized in a glass-to-glass homogenizer (Fisher Scientific, catalog no. K885500-0021) to high homogeneity. Protein concentration was quantified using the BCA protein assay according to the manufacturer's protocol (Pierce, Rockford, Ill.; catalog no. 23227). The homogenized RPE preparations were stored at −80° C.
Recombinant human apo cellular retinaldehyde-binding protein (CRALBP) was cloned and expressed according to standard methods in the molecular biology art (see Crabb et al., Protein Science 7:746-57 (1998); Crabb et al., J. Biol. Chem. 263:18688-92 (1988)). Briefly, total RNA was prepared from confluent ARPE19 cells (American Type Culture Collection, Manassas, Va.), cDNA was synthesized using an oligo(dT)12-18 primer, and then DNA encoding CRALBP was amplified by two sequential polymerase chain reactions (see Crabb et al., J. Biol. Chem. 263:18688-92 (1988); Intres, et al., J. Biol. Chem. 269:25411-18 (1994); GenBank Accession No. L34219.1). The PCR product was sub-cloned into pTrcHis2-TOPO TA vector according to the manufacturer's protocol (Invitrogen Inc., Carlsbad, Calif.; catalog no. K4400-01), and then the sequence was confirmed according to standard nucleotide sequencing techniques. Recombinant 6×His-tagged human CRALBP was expressed in One Shot TOP 10 chemically competent E. coli cells (Invitrogen), and the recombinant polypeptide was isolated from E. coli cell lysates by nickel affinity chromatography using Ni Sepharose XKI 6-20 columns for HPLC (Amersham Bioscience, Pittsburgh, Pa.; catalog no. 17-5268-02). The purified 6×His-tagged human CRALBP was dialyzed against 10 mM bis-tris-Propane (BTP) and analyzed by SDS-PAGE. The molecular weight of the recombinant human CRALBP was approximately 39 kDal.
The isomerase assay was performed in 10 mM BTP buffer, pH 7.5, 1% BSA, containing 1 mM ATP and 6 μM apo-CRALBP (cellular retinaldehyde-binding protein). To investigate inhibition properties of retinylamine derivative compounds, RPE microsomes were preincubated for 5 min in 37° C. with a compound in 10 mM BTP buffer, pH 7.5, 1% BSA, and 1 mM ATP prior to addition of apo-CRALBP and 10 μM all-trans-retinol. Retinylamine derivative compounds were delivered to the reaction mixture in 2 μl ethanol. If the compounds were not soluble in ethanol, DMF was added until the compound was in solution. The same volume of ethanol and/or DMF was added to the control reaction (absence of test compound). […]

Row | IC50 | Structure (SMILES)
1 | 3.1 µM | CC1=C(/C=C/C(C)=C2C=C/C(=C/CN)CCC/2)C(C)(C)CCC1 [Cmpd 1]
2 | 0.55 µM | CC1=C(/C=C/C(C)=C2C=C/C(=C/CN)CC/2)C(C)(C)CCC1 [Cmpd 2]
3 | 0.7 µM | CC1=C(/C=C/C(C)=C/C=C/C(C)=C/CN)C(C)(C)CCC1 [Cmpd 3]
4 | 5.8 µM | CC1=C(/C=C/C(C)=C/C=C/CN)C(C)(C)CCC1 [Cmpd 4]
5 | 1.7 µM | CC(=CCCCCN)/C=C/C1=C(C)CCCC1(C)C [Cmpd 5]
6 | 8.4 µM | CC1=C(/C=C/C(C)=C/CN)C(C)(C)CCC1 [Cmpd 7]
7 | 0.6 µM | CC1=C(/C=C/C(C)=C/C=C\CCCN)C(C)(C)CCC1 [Cmpd 8]
8 | 6 µM | CC1=C(/C=C/C(C)=C/C=C/CCCN)C(C)(C)CCC1 [Cmpd 9]
9 | 14 µM | CC1=C(/C=C/C(C)=C/C=C/CCCCN)C(C)(C)CCC1 [Cmpd 10]
10 | 17 µM | CC1=C(/C=C/C(C)=C/C=C/C(C)=C/CN)C(C)(C)CCC1OCc1ccccc1 (stereo not drawn) [Cmpd 11]
11 | 25 µM | CC1=C(/C=C/C(C)=C/C=CCCCCCCN)C(C)(C)CCC1 [Cmpd 12]
12 | 200 µM | CC1=C(/C=C/C(C)=C/C=C/CCCCCCN)C(C)(C)CCC1 [Cmpd 13]
13 | 80 µM | CC1=C(/C=C/C(C)N)C(C)(C)CCC1 (stereo not drawn) [Cmpd 14]

Test system: RXR
Experiment: not given
Conditions: at micromolar concentrations; cited from earlier work

Row | Structure (SMILES) | interaction with RXR
14 | CC1=C(/C=C/C(C)=C/C=C/C(C)=C/CN)C(C)(C)CCC1 [Ret-NH2, retinylamine] | does not interact

Test system: RAR
Experiment: not given
Conditions: at micromolar concentrations; cited from earlier work

Row | Structure (SMILES) | interaction with RAR
15 | CC1=C(/C=C/C(C)=C/C=C/C(C)=C/CN)C(C)(C)CCC1 [Ret-NH2, retinylamine] | does not interact
